The record followed here is US20260097017A1, “TASIPIMIDINE AND CYP2D6 INHIBITOR COMBINATION TREATMENT” (ORION CORPORATION, priority 2022, published 2026).

The fraction unbound is free concentration divided by total concentration.

Like-named read-outs stand apart in the source and are kept apart here.

The nature of series [1]: First-in-man single-dose escalation study, plasma PK. Type of series: in vivo. As to conditions: both sexes, human, po, mean. Here is the method: The first-in-man study was a randomized, double-blind, placebo-controlled, single-dose escalation study with healthy female and male subjects aged 18-44 years. The subjects were allocated to cohorts of 8 subjects of which 6 received active treatment and 2 received placebo. Each subject received either 1 dose of tasipimidine oral solution or 1 dose of placebo oral solution during the study. The studied doses of tasipimidine were 10, 25, 50, 100, and 150 μg as oral solution.
The subjects were genotyped for CYP2D6 on screening. The translation of CYP2D6 genotype to CYP2D6 phenotype was done according to the national consensus published by the Dutch Pharmacogenetics Working Group from KNMP (https://www.knmp.nl/index.php/media/113). The subjects with CYP2D6 poor metabolizer genotype were excluded from the study. The translation of CYP2D6 genotype to activity score was done according to the CYP2D6 Allele Functionality Table of PharmGKB (https://www.pharmgkb.org/page/cyp2d6RefMaterials).
Frequent blood samples were taken through an intravenous cannula for the assessment of the concentration of tasipimidine and its metabolite 1 in plasma. The sampling times were before (0 h) and 15 min, 30 min, 45 min, 1, 1.5, 2, 3, 4, 5, 6, 8, 10, 12, 16, and 24 hours after the study treatment administration. The PK parameters were calculated from the plasma concentration-time data by noncompartmental method using the commercial Phoenix WinNonlin software version 8.3.

The target of series [2] is CYP2D6 (Homo sapiens, UniProt P10635). The series can be described thus: Incubation with rhCYP2D6 Supersomes: intrinsic clearance and enzyme kinetics. Type of series: in vitro ADME. Also noted: purchased; host or cells: baculovirus-transfected insect cells. On the procedure: The objective of these studies was to identify enzymes involved in the metabolism of tasipimidine in human. The test substance tasipimidine and the reference compounds for main tasipimidine metabolites 1-(4,5-dihydro-1H-imidazol-2-yl) isochroman-5-ol (metabolite 1), 2-(5-methoxyisochroman-1-yl)-1H-imidazole (metabolite 2), and 1-(1H-imidazol-2-yl) isochroman-5-ol (metabolite 3) were supplied by Orion Pharma. To further support the findings of recombinant enzyme incubations tasipimidine was incubated with human hepatocytes with two enzyme inhibitors, i.e. 1-aminobenzotriazole (ABT, non-selective CYP inhibitor), and quinidine (CYP2D6 inhibitor).
CYP2D6, sequence (P10635 whole entry): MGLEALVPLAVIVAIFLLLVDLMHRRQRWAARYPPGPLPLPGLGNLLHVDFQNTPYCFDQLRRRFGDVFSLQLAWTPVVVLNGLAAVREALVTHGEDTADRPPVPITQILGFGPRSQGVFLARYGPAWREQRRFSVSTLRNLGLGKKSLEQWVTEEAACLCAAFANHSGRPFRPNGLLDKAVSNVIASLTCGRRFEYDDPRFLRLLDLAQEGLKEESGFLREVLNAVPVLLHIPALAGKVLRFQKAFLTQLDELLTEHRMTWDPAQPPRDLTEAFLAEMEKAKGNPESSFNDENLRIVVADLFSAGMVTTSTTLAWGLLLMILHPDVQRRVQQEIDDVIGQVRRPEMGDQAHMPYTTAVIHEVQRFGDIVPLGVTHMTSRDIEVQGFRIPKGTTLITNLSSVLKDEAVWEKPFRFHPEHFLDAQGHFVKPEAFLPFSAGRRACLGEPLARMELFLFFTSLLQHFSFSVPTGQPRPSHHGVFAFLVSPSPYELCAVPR
Moreover, enzyme kinetics of tasipimidine metabolism was studied in rhCYP2D6.
Enzyme kinetics of tasipidimine metabolism by rhCYP2D6 was studied by incubating the test compound at 0.16, 0.41, 1, 2.6, 6.4, 16, 40 and 100 μM concentrations containing 10 pmol/ml of the CYP enzyme for 0, 5, 10, 20, and 30 min. Enzyme kinetics was estimated from CLint values measured for the test compound at different concentrations while metabolite characterisation was not performed.
The analysis for disappearance of tasipimidine and the identification of the formed metabolites were carried out by using a high-resolution liquid chromatographic-mass spectrometer supported by accurate masses (UPLC-HRMS). […]

Series [3] in a line: Blood to plasma ratio and fraction unbound in plasma (PBPK input parameters). The class given is in vitro ADME. To be noted: human, input parameter of the PBPK model. An excerpt:
A physiologically based pharmacokinetic (PBPK) model was used to simulate the plasma exposure of tasipimidine in fasted healthy 30 years old males of 70 kg with different CYP2D6 phenotypes. Simulations were produced with the commercial GastroPlus® 9.8.2 software.

Turning to `COc1cccc2c1CCOC2C1=NCCN1` (centres unmarked) [tasipimidine, 2-(5-methoxyisochroman-1-yl)-4,5-dihydro-1H-imidazole], the AUC(0-inf) in series [1] (10 ug, 10 μg single oral dose, corrected by CYP2D6 genotype based activity score, n = 6, read-out: AUCinf * AS) came out at 0.09 ng·h/mL; in series [1] (10 ug, 10 μg single oral solution dose, n = 6, healthy subjects, read-out: AUCinf) it was 0.052 ng·h/mL; in series [1] (25 ug, 25 μg single oral dose, corrected by CYP2D6 genotype based activity score, n = 6, read-out: AUCinf * AS), 0.254 ng·h/mL; in series [1] (25 ug, 25 μg single oral solution dose, n = 6, healthy subjects, read-out: AUCinf), 0.186 ng·h/mL; in series [1] (50 ug, 50 μg single oral dose, corrected by CYP2D6 genotype based activity score, n = 6, read-out: AUCinf * AS), 0.475 ng·h/mL; in series [1] (50 ug, 50 μg single oral solution dose, n = 6, healthy subjects, read-out: AUCinf) it was 0.36 ng·h/mL. The AUC(0-inf) in series [1] (100 ug, 100 μg single oral dose, corrected by CYP2D6 genotype based activity score, n = 6, read-out: AUCinf * AS) stood at 1.03 ng·h/mL; in series [1] (100 ug, 100 μg single oral solution dose, n = 6, healthy subjects, read-out: AUCinf), 1.03 ng·h/mL; in series [1] (150 ug, 150 μg single oral dose, corrected by CYP2D6 genotype based activity score, n = 6, read-out: AUCinf * AS), 2.03 ng·h/mL; in series [1] (150 ug, 150 μg single oral solution dose, n = 6, healthy subjects, read-out: AUCinf) it was 1.74 ng·h/mL. In addition, in series [2] (CYP2D6, human in vitro systems), the “contribution of enzyme to tasipimidine metabolism” value is listed as “major enzyme”. Further, in series [2] (tasipimidine 1 μM in rhCYP2D6), the “intrinsic clearance (CLint)” value came out at 1.75 μl/min/pmol CYP. In addition, the blood plasma ratio in series [3] (blood and plasma) was 1.13. Moreover, the free fraction (fraction unbound) in series [3] (plasma) was 0.86.
